Laboratory results taken from article PMC5007619 (Biochemistry, 2016).

How the values were obtained:
p300 = p300 (Homo sapiens, UniProt Q09472); assay: […]acetyl-CoA nucleosome acetyltransferase assay; assay type: biochemical
CBP = CBP (Homo sapiens, UniProt Q92793); assay: H3K18ac Western blot of nucleosome acetylation by purified CBP; assay type: biochemical
Sequence of CBP (Q92793 2-2442): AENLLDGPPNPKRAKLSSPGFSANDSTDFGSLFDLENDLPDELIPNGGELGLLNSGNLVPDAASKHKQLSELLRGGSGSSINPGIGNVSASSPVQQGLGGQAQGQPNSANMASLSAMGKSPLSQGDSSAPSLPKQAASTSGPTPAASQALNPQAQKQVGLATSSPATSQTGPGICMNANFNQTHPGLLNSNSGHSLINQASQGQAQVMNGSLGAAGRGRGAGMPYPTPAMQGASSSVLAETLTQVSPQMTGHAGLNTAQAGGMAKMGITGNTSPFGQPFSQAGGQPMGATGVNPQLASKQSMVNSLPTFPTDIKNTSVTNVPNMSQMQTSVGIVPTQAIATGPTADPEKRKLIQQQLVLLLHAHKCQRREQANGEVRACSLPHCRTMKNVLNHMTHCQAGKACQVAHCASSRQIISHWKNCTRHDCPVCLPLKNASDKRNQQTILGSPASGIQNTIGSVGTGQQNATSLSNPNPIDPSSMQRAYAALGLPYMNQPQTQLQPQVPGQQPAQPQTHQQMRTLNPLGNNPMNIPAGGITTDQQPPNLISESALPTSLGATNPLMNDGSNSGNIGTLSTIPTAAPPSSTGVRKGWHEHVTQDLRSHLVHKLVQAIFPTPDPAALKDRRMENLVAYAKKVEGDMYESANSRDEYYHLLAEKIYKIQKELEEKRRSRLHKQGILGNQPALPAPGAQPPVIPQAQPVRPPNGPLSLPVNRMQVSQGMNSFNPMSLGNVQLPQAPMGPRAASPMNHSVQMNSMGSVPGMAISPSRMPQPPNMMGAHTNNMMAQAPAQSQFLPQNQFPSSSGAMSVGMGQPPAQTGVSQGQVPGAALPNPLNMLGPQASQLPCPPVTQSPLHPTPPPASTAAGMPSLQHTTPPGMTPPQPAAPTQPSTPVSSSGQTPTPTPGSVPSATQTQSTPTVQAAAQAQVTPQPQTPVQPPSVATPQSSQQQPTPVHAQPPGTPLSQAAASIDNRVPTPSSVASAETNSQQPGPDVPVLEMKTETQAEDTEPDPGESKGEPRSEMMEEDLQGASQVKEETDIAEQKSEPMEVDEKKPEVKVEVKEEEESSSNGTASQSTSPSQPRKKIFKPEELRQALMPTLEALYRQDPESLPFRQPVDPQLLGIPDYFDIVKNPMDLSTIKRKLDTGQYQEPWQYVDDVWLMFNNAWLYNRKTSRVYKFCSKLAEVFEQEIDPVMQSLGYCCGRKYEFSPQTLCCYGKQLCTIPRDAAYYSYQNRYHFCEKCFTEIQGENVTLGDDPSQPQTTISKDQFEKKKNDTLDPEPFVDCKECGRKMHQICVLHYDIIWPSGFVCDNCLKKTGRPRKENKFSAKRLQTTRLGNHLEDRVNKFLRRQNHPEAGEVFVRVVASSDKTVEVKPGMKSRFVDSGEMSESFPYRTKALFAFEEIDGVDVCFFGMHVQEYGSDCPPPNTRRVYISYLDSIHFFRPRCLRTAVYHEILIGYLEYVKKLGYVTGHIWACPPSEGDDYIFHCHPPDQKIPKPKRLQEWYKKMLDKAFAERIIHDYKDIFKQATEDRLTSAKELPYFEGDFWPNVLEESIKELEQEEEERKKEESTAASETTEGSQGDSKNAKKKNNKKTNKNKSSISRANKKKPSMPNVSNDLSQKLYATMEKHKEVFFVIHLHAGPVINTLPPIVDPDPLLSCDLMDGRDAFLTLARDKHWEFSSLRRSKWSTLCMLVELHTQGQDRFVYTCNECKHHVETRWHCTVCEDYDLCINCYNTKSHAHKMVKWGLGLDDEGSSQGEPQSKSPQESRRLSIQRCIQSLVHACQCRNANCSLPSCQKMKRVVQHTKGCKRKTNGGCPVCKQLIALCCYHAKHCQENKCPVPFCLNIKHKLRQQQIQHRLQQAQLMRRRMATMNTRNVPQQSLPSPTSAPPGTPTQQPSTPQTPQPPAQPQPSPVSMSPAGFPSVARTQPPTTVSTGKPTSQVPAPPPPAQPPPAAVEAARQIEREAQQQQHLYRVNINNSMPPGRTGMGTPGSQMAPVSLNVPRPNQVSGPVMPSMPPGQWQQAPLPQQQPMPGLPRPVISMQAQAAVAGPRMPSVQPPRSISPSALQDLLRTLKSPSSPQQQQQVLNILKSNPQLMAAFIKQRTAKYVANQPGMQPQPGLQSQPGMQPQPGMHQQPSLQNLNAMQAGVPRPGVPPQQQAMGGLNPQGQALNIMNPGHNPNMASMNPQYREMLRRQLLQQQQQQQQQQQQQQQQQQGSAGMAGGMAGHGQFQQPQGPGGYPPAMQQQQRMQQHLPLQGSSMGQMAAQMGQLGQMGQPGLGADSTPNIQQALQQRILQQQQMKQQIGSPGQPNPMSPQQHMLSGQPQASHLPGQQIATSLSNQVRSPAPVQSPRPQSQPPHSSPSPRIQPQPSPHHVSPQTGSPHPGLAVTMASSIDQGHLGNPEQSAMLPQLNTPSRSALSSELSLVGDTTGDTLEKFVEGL

Sequence of p300 (Q09472 2-2414): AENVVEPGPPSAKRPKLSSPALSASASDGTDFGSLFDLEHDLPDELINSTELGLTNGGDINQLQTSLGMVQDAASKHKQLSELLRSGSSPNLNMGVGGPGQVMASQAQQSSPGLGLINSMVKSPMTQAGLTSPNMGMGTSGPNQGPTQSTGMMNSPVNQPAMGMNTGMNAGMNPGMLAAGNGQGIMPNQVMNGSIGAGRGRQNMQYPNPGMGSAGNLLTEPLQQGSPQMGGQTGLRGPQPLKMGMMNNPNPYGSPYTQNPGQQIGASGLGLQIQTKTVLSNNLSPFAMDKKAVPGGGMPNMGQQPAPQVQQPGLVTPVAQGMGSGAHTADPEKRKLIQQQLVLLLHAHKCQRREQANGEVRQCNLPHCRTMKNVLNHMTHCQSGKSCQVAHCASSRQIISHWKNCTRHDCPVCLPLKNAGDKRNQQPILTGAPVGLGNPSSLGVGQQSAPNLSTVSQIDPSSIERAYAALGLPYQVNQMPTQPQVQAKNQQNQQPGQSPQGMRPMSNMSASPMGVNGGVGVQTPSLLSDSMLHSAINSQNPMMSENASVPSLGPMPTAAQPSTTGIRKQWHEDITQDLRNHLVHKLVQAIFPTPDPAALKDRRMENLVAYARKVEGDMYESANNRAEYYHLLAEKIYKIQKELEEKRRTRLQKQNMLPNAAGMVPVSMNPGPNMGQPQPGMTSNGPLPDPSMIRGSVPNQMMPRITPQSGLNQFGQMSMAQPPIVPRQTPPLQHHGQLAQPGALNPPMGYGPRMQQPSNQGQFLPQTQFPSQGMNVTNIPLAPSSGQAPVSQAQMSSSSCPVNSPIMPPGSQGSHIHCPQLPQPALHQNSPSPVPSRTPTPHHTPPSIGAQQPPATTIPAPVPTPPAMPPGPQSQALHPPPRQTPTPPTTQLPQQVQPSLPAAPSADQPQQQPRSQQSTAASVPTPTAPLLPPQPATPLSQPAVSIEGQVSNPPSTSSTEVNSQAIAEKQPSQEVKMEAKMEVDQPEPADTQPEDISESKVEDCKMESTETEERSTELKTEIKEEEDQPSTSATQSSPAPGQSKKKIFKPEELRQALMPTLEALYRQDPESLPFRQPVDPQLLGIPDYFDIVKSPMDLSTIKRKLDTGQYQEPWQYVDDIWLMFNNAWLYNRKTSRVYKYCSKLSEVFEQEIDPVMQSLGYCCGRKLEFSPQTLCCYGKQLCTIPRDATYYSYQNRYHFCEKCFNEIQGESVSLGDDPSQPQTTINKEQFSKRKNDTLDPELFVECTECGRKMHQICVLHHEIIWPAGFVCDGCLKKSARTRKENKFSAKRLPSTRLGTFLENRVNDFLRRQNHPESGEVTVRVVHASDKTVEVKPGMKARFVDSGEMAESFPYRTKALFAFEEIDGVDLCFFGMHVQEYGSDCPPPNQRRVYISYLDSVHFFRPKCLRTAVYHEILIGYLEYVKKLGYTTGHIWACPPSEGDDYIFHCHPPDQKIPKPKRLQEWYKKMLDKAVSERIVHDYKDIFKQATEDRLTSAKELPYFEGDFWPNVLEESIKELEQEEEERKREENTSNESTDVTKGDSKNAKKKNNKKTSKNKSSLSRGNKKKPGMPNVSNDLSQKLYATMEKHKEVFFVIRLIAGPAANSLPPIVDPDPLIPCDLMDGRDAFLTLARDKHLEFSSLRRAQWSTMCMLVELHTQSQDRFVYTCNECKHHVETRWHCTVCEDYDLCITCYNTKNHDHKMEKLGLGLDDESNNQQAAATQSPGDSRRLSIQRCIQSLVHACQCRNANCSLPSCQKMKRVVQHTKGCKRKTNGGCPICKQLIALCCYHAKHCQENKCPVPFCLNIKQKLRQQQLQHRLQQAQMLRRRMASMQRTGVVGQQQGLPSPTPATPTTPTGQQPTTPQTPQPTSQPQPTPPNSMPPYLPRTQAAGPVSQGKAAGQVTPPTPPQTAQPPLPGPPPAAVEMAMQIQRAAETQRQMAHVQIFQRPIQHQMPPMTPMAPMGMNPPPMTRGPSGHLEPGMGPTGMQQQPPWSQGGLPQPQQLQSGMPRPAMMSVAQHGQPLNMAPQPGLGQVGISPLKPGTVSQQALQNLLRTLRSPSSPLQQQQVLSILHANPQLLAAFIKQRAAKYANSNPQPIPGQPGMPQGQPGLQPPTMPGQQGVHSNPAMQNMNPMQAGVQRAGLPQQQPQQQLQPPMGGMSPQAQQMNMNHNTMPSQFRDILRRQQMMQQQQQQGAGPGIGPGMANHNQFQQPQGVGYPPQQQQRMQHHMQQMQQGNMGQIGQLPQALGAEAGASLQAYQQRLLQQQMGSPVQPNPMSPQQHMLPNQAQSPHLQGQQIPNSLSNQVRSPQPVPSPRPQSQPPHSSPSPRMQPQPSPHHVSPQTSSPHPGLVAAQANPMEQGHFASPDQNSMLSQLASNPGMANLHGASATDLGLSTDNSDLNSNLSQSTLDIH

SMILES: CCC(=O)N1CCOc2c(cc(-c3ccc(OC)c(OC)c3)cc2OC[C@H]2CCCN(C)C2)C1 [I-CBP112, 1-[7-(3,4-dimethoxyphenyl)-9-{[(3S)-1-methylpiperidin-3-yl]-methoxy}-2,3,4,5-tetrahydro-1,4-benzoxazepin-4-yl]propan-1-one]
- EC50 (p300): 11 ± 3 µM
- EC50 (CBP): ~2000 nM
